Values quoted from earlier work, collected in paper PMC10323144, “Garbage in, garbage out: how reliable training data improved a virtual screening approach against SARS-CoV-2 MPro” (Frontiers in Pharmacology, 2023).
Peptide text beside a SMILES is read from it. * marks the point of attachment. Cbz = O=C(OCc1ccccc1)*

Test system: MPro
Details: compiled from peer-reviewed sources (287 compounds) ref the 18 original articles; cited from earlier work

SMILES	Class (MPro activity class)
CCCC[C@H](NC(=O)[C@@H]1[C@@H]2[C@H](CN1C(=O)[C@@H](NC(=O)NC1(CS(=O)(=O)C(C)(C)C)CCCCC1)C(C)(C)C)C2(C)C)C(=O)C(=O)NC1CC1 [Narlaprevir]	1 (Compounds with IC50 < 10 µM or with a percentage of enzyme inhibition >50% at 10 µM were labelled as ACTIVE)
CC(C)C[C@H](NC(=O)[C@H](Cc1ccccc1)NC(=O)c1cnccn1)B(O)O [bortezomib]	0 (compounds with IC50 > 20 μM, percentage inhibition <80% at 20 µM or 50 μM, or percentage enzyme inhibition <50% at 10 µM were labelled as INACTIVE)
CCOC(=O)c1nc(S(C)(=O)=O)ncc1Cl [LON-WEI-ff7b210a-5]	1 (Compounds with IC50 < 10 µM or with a percentage of enzyme inhibition >50% at 10 µM were labelled as ACTIVE)
CC(C)CCNC(=O)C(CC(C)C)NC(=O)C1OC1C(=O)O (centres unmarked) [Loxistatin Acid]	0 (compounds with IC50 > 20 μM, percentage inhibition <80% at 20 µM or 50 μM, or percentage enzyme inhibition <50% at 10 µM were labelled as INACTIVE)
C[C@H]1C[C@@H]2[C@H]([C@@H](O)C[C@@]3(C)[C@H]2CC[C@]3(O)C(=O)CO)[C@@]2(C)C=CC(=O)C=C12 [methylprednisolone]	0 (compounds with IC50 > 20 μM, percentage inhibition <80% at 20 µM or 50 μM, or percentage enzyme inhibition <50% at 10 µM were labelled as INACTIVE)
COC(=O)N[C@H](C(=O)N1CCC[C@H]1C(=O)Nc1ccc([C@@H]2CC[C@@H](c3ccc(NC(=O)[C@@H]4CCCN4C(=O)[C@@H](NC(=O)OC)C(C)C)cc3)N2c2ccc(C(C)(C)C)cc2)cc1)C(C)C [Ombitasvir]	0 (compounds with IC50 > 20 μM, percentage inhibition <80% at 20 µM or 50 μM, or percentage enzyme inhibition <50% at 10 µM were labelled as INACTIVE)
CCCC(NC(=O)C(CC(C)C)NC(=O)OCc1ccccc1)C(=O)C(=O)NCc1ccccc1 (centres unmarked) [UAWJ257]	0 (compounds with IC50 > 20 μM, percentage inhibition <80% at 20 µM or 50 μM, or percentage enzyme inhibition <50% at 10 µM were labelled as INACTIVE)
NC(=O)c1ncn([C@@H]2O[C@H](CO)[C@@H](O)[C@H]2O)n1 [Ribavirin]	0 (compounds with IC50 > 20 μM, percentage inhibition <80% at 20 µM or 50 μM, or percentage enzyme inhibition <50% at 10 µM were labelled as INACTIVE)
C[C@@H]1O[C@@H](OC[C@H]2O[C@@H](OCCc3ccc(O)c(O)c3)[C@H](O)[C@@H](O)[C@@H]2OC(=O)/C=C/c2ccc(O)c(O)c2)[C@H](O)[C@H](O)[C@H]1O [Forsythoside A]	1 (Compounds with IC50 < 10 µM or with a percentage of enzyme inhibition >50% at 10 µM were labelled as ACTIVE)
CC(C)(C(=O)NCC(F)(F)C(F)(F)F)C(=O)N[C@@H]1C(=O)Nc2ccccc2-c2ccccc21 [RO4929097]	0 (compounds with IC50 > 20 μM, percentage inhibition <80% at 20 µM or 50 μM, or percentage enzyme inhibition <50% at 10 µM were labelled as INACTIVE)
COc1ccc(O)c(C=NN2C(=O)c3ccccc3NC2c2cc(OC)ccc2O)c1 (centres unmarked) [QZ4]	1 (Compounds with IC50 < 10 µM or with a percentage of enzyme inhibition >50% at 10 µM were labelled as ACTIVE)
COc1cc(Cl)cc(OC(=O)Nc2cccnc2)c1 [AGN-NEW-891393a6-1]	1 (Compounds with IC50 < 10 µM or with a percentage of enzyme inhibition >50% at 10 µM were labelled as ACTIVE)
O=C(C=Cc1ccc(O)c(O)c1)OC1CC(O)(C(=O)O)CC(O)C1OC(=O)C=Cc1ccc(O)c(O)c1 (centres unmarked) [Isochlorogenic acid B]	0 (compounds with IC50 > 20 μM, percentage inhibition <80% at 20 µM or 50 μM, or percentage enzyme inhibition <50% at 10 µM were labelled as INACTIVE)
CC(C)C[C@@H](C=O)NC(=O)[C@H](CC(C)C)NC(=O)[C@H](CC(C)C)NC(=O)OCc1ccccc1 [MG-132] (Cbz-Leu-Leu-Leu-aldehyde)	1 (Compounds with IC50 < 10 µM or with a percentage of enzyme inhibition >50% at 10 µM were labelled as ACTIVE)
